How the values were obtained:
Experiment in all cases: Test B pre-/postemergence plant response
Format in all cases: in vivo
[1] = system: bermudagrass (Cynodon dactylon)
How it was run: (§1)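 Each species received compound formulated in non-phytotoxic solvent with surfactant, either at planting into a loam and sand blend or as a foliar spray once plants reached 2 to 18 cm in peat-based medium. Plants stayed in the greenhouse 13 to 15 days before visual evaluation against controls, scored 0 (no effect) to 100 (complete control).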

[2] = system: goosegrass (Eleusine indica)
How it was run: as §1

[3] = system: morningglory (Ipomoea coccinea)
How it was run: as §1

[4] = system: woolly cupgrass (Eriochloa villosa)
How it was run: as §1

[5] = system: green foxtail (Setaria viridis)
How it was run: as §1

corn (Zea mays) = system: corn (Zea mays)
How it was run: as §1

[6] = system: downy bromegrass (Bromus tectorum)
How it was run: as §1

[7] = system: giant foxtail (Setaria faberii)
How it was run: as §1

[8] = system: johnsongrass (Sorghum halepense)
How it was run: as §1

[9] = system: large crabgrass (Digitaria sanguinalis)
How it was run: as §1

[10] = system: Italian ryegrass (Lolium multiflorum)
How it was run: as §1

[11] = system: yellow nutsedge (Cyperus esculentus)
How it was run: as §1

[12] = system: ragweed (common ragweed, Ambrosia elatior)
How it was run: as §1

[13] = 31 g ai/ha, postemergence, scale 0 to 100, 0 is no effect, 100 is complete control
[14] = 62 g ai/ha, postemergence, 0 is no effect, 100 is complete control, 13 to 15 days
[15] = 250 g ai/ha, Preemergence, 0 to 100 scale
[16] = Postemergence, 125 g ai/ha, visual rating after 13 to 15 days, scale 0 (no effect) to 100 (complete control)
[17] = Postemergence, 250 g ai/ha, scale 0 to 100 (0 no effect, 100 complete control)
[18] = Preemergence, 31 g ai/ha, scale 0 to 100 (0 no effect, 100 complete control)
[19] = Preemergence, 62 g ai/ha, scale 0 to 100 (0 no effect, 100 complete control)
[20] = Preemergence, 125 g ai/ha, scale 0 to 100, 0 no effect, 100 complete control

CCCc1ncc(C(=O)C2=C(O)CCCC2=O)c(=O)n1-c1ccccc1C [Compound 73]
60: Plant response rating, Cupgrass, Woolly [4, 13] | Plant response rating, Bromegrass, Downy [6, 17] | Plant response rating, Ryegrass, Italian [10, 16] | Plant response rating, Ragweed [12, 19]
80: Bermudagrass plant response rating (0 to 100 scale) [1, 14] | Plant response rating, Goosegrass [2, 17] | Plant response rating, Cupgrass, Woolly [4, 15] | Plant response rating, Foxtail, Green [5, 15] | Corn plant response rating (0 to 100 scale) (corn (Zea mays); [14]) | Plant response rating, Corn (corn (Zea mays); [16]) | Plant response rating, Foxtail, Giant [7, 15] | Plant response rating, Foxtail, Giant [7, 16] | Plant response rating, Crabgrass, Large [9, 13] | Ragweed plant response rating (0 to 100 scale) [12, 14]
0: Plant response rating, Morningglory [3, 13] | Plant response rating, Morningglory [3, 18] | Plant response rating, Morningglory [3, 19] | Plant response rating, Foxtail, Green [5, 18] | Plant response rating, Corn (corn (Zea mays); [18]) | Plant response rating, Corn (corn (Zea mays); [19]) | Plant response rating, Corn (corn (Zea mays); [20]) | Plant response rating, Bromegrass, Downy [6, 18] | Plant response rating, Foxtail, Giant [7, 18] | Plant response rating, Johnsongrass [8, 18] | Plant response rating, Johnsongrass [8, 19] | Plant response rating, Ryegrass, Italian [10, 18] | Plant response rating, Ryegrass, Italian [10, 19] | Plant response rating, Ryegrass, Italian [10, 20]
50: Plant response rating, Bermudagrass [1, 18] | Morningglory plant response rating (0 to 100 scale) [3, 14] | Plant response rating, Bromegrass, Downy [6, 16] | Plant response rating, Nutsedge, Yellow [11, 16]
98: Plant response rating, Bermudagrass [1, 19] | Plant response rating, Bermudagrass [1, 20] | Plant response rating, Goosegrass [2, 19] | Plant response rating, Johnsongrass [8, 15] | Plant response rating, Johnsongrass [8, 20] | Plant response rating, Crabgrass, Large [9, 19]
10: Plant response rating, Cupgrass, Woolly [4, 18] | Plant response rating, Corn (corn (Zea mays); [15]) | Plant response rating, Johnsongrass [8, 13]
70: Plant response rating, Foxtail, Green [5, 13] | Plant response rating, Foxtail, Giant [7, 13] | Plant response rating, Foxtail, Giant [7, 19] | Plant response rating, Johnsongrass [8, 16] | Plant response rating, Ryegrass, Italian [10, 17] | Plant response rating, Nutsedge, Yellow [11, 17]
45: Plant response rating, Morningglory [3, 20] | Bromegrass, Downy plant response rating (0 to 100 scale) [6, 14] | Ryegrass, Italian plant response rating (0 to 100 scale) [10, 14] | Plant response rating, Ragweed [12, 18]
85: Plant response rating, Goosegrass [2, 18] | Plant response rating, Corn (corn (Zea mays); [17]) | Crabgrass, Large plant response rating (0 to 100 scale) [9, 14] | Plant response rating, Crabgrass, Large [9, 18] | Plant response rating, Ragweed [12, 16] | Plant response rating, Ragweed [12, 17]
65: Plant response rating, Bermudagrass [1, 13] | Plant response rating, Goosegrass [2, 13] | Cupgrass, Woolly plant response rating (0 to 100 scale) [4, 14] | Plant response rating, Cupgrass, Woolly [4, 16] | Plant response rating, Cupgrass, Woolly [4, 17] | Johnsongrass plant response rating (0 to 100 scale) [8, 14] | Plant response rating, Nutsedge, Yellow [11, 19] | Plant response rating, Nutsedge, Yellow [11, 20]
5: Plant response rating, Bromegrass, Downy [6, 19] | Plant response rating, Bromegrass, Downy [6, 20]
20: Plant response rating, Cupgrass, Woolly [4, 19] | Plant response rating, Corn (corn (Zea mays); [13]) | Plant response rating, Bromegrass, Downy [6, 13] | Plant response rating, Bromegrass, Downy [6, 15] | Plant response rating, Nutsedge, Yellow [11, 13] | Nutsedge, Yellow plant response rating (0 to 100 scale) [11, 14] | Plant response rating, Nutsedge, Yellow [11, 18]
55: Plant response rating, Cupgrass, Woolly [4, 20]
30: Plant response rating, Foxtail, Green [5, 19] | Plant response rating, Foxtail, Green [5, 20]
35: Plant response rating, Ryegrass, Italian [10, 13]
75: Goosegrass plant response rating (0 to 100 scale) [2, 14] | Plant response rating, Goosegrass [2, 16] | Plant response rating, Morningglory [3, 16] | Foxtail, Giant plant response rating (0 to 100 scale) [7, 14] | Plant response rating, Foxtail, Giant [7, 20] | Plant response rating, Johnsongrass [8, 17] | Plant response rating, Ragweed [12, 13] | Plant response rating, Ragweed [12, 20]
90: Plant response rating, Bermudagrass [1, 16] | Plant response rating, Bermudagrass [1, 17] | Foxtail, Green plant response rating (0 to 100 scale) [5, 14] | Plant response rating, Foxtail, Green [5, 16] | Plant response rating, Foxtail, Giant [7, 17] | Plant response rating, Crabgrass, Large [9, 16]
95: Plant response rating, Morningglory [3, 17] | Plant response rating, Foxtail, Green [5, 17] | Plant response rating, Crabgrass, Large [9, 17]
100: Plant response rating, Bermudagrass [1, 15] | Plant response rating, Goosegrass [2, 15] | Plant response rating, Goosegrass [2, 20] | Plant response rating, Crabgrass, Large [9, 15] | Plant response rating, Crabgrass, Large [9, 20]
